Literature values, collected in US12708115B2, “Inground and above ground termite trailing and recruitment products and processes” (Florida Insect Control Group LLC, priority 2023, dated 2026).

Tested on: subterranean termites

## OCCOc1ccccc1 [2-phenoxyethanol]
field, untreated stations 0 of 20
  soil-treated detection stations hit by termites: 5 of 20
Soil treatment, Prescott thesis
  feeding on cellulose material surrounded by the treatment: feed more
